From patent US8962843B2, “1,3,4-oxadiazole and 1,3,4-thiadiazole beta-lactamase inhibitors” (priority 2012, dated 2015)
Counter-ions that a name gives are not always drawn.

Key:
[1] = test system: bacterial strains that express KPC β-lactamases; experiment: Standard BLI potentiation MIC / synergy MIC assays, strains expressing KPC β-lactamases; type: cell-based; settings: in combination with a β-lactam; comparator Avibactam
Outline: (§1)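 Broth microdilution in cation-adjusted Mueller Hinton broth per CLSI M07-A9, ~10^5 CFU/mL, 18-20 h at 37 °C with aeration; engineered E. coli carrying β-lactamase plasmids kept on 25 μg/mL tetracycline. β-lactam MIC measured in 2-fold dilutions (128-0.13 μg/mL) with BLI fixed at 4 μg/mL; sMIC titrates BLI against a fixed β-lactam concentration. MIC = lowest concentration without visible turbidity.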

[2] = test system: bacterial strains that express the class D cephalosporinase OXA-15; experiment: Standard BLI potentiation MIC / synergy MIC assays, strains expressing OXA-15; type: cell-based, E. coli; settings: in combination with a β-lactam; comparator Avibactam (CCC)
Outline: as §1

Row | SMILES | activity and/or spectrum of activity against bacterial strains that express KPC β-lactamases, compared with Avibactam [1] | activity against bacterial strains that express the class D cephalosporinase OXA-15, compared with Avibactam [2]
1 | O=C1N2C[C@@H](CC[C@H]2c2nnc(CNC3CNC3)o2)N1OS(=O)(=O)O [Compound 726, (2S,5R)-2-(5-((azetidin-3-ylamino)methyl)-1,3,4-oxadiazol-2-yl)-7-oxo-1,6-diazabicyclo[3.2.1]octan-6-yl hydrogen sulfate] | more active than Avibactam for at least one, bacterial strain that expresses KPC β-lactamase and/or show a better spectrum of activity | more active than Avibactam
2 | O=C1N2C[C@@H](CC[C@H]2c2nnc([C@@H]3CCNC3)o2)N1OS(=O)(=O)O [Compound 759, (2S,5R)-7-oxo-2-(5((R)-pyrrolidin-3-yl)-1,3,4-oxadiazol-2-yl)-1,6-diazabicyclo[3.2.1]octan-6-yl hydrogen sulfate] | more active than Avibactam for at least one, bacterial strain that expresses KPC β-lactamase and/or show a better spectrum of activity | more active than Avibactam
3 | N=C(N)NC[C@@H](O)c1nnc([C@@H]2CC[C@@H]3CN2C(=O)N3OS(=O)(=O)O)o1 [Compound 731, (2S,5R)-2-(5-((R)-2-guanidino-1-hydroxyethyl)-1,3,4-oxadiazol-2-yl)-7-oxo-1,6-diazabicyclo[3.2.1]octan-6-yl hydrogen sulfate] | more active than Avibactam for at least one, bacterial strain that expresses KPC β-lactamase and/or show a better spectrum of activity | more active than Avibactam
4 | N[C@H]1C[C@@H](CCc2nnc([C@@H]3CC[C@@H]4CN3C(=O)N4OS(=O)(=O)O)o2)C1 [Compound 754, (2S,5R)-2-(5-(2-((1s,3S)-3-aminocyclobutyl)ethyl)-1,3,4-oxadiazol-2-yl)-7-oxo-1,6-diazabicyclo[3.2.1]octan-6-yl hydrogen sulfate] | more active than Avibactam for at least one, bacterial strain that expresses KPC β-lactamase and/or show a better spectrum of activity | more active than Avibactam
5 | N=C(N)NC[C@H](O)c1nnc([C@@H]2CC[C@@H]3CN2C(=O)N3OS(=O)(=O)O)o1 [Compound 732, (2S,5R)-2-(5-((S)-2-guanidino-1-hydroxyethyl)-1,3,4-oxadiazol-2-yl)-7-oxo-1,6-diazabicyclo[3.2.1]octan-6-yl hydrogen sulfate] | more active than Avibactam for at least one, bacterial strain that expresses KPC β-lactamase and/or show a better spectrum of activity | more active than Avibactam
6 | O=C1N2C[C@@H](CC[C@H]2c2nnc(C3CNC3)o2)N1OS(=O)(=O)O [Compound 708, (2S,5R)-2-(5-(azetidin-3-yl)-1,3,4-oxadiazol-2-yl)-7-oxo-1,6-diazabicyclo[3.2.1]octan-6-yl hydrogen sulfate] | more active than Avibactam for at least one, bacterial strain that expresses KPC β-lactamase and/or show a better spectrum of activity | more active than Avibactam
7 | N[C@H]1C[C@@H](c2nnc([C@@H]3CC[C@@H]4CN3C(=O)N4OS(=O)(=O)O)s2)C1 [Compound 795, (2S,5R)-2-(5-((1s,3R)-3-aminocyclobutyl)-1,3,4-thiadiazol-2-yl)-7-oxo-1,6-diazabicyclo[3.2.1]octan-6-yl hydrogen sulfate] | more active than Avibactam for at least one, bacterial strain that expresses KPC β-lactamase and/or show a better spectrum of activity | more active than Avibactam
